One data set has as its target T1, ERp57 (Homo sapiens, UniProt P30101).
T1 construct: made in house; host or cells: E. coli BL21, vector pET21
T1 sequence (P30101 25-505): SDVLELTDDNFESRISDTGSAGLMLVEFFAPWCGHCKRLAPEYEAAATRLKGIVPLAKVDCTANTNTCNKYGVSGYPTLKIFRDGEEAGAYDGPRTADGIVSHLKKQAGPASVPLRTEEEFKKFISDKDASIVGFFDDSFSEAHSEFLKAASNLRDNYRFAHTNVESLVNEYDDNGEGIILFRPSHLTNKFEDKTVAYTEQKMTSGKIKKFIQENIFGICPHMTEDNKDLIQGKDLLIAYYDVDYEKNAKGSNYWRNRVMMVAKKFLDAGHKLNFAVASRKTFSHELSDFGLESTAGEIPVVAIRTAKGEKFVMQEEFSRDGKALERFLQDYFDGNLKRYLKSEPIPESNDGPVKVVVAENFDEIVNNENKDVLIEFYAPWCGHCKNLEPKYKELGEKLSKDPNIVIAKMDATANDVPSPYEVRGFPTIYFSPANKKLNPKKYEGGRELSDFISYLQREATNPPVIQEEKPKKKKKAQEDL
Description: Surface plasmon resonance, Aβ25−35 binding to immobilized ERp57. The note with it: SPR, ERp57 on COOH5 sensorchip; global fitting with one binding site; non-aggregated Aβ25−35 15.6 μM–1.0 mM; HBSP buffer pH 7.4; 25°C; read-out: overall K D. The text has this: Human recombinant PDIA3 was cloned and expressed in E. coli strain BL21 (Invitrogen™, catalog number C600003) using the expression vector pET21 (Novagen, catalog number 69770) as described by Coppari (Coppari et al., [2002]). The coding sequence for the second redox‐active domain (aʹ domain, residues 377–505) was amplified by PCR as previously described and cloned in the expression vector pET29 (Novagen) (Grillo et al., [2002]). Recombinant proteins were expressed in E. coli strain BL21 and purified by ammonium sulfate fractionation, ion exchange, and heparin chromatography (Grillo et al., [2006]). Protein purification was evaluated by SDS‐PAGE and concentration was determined spectrophotometrically (PDIA3 Ɛ280 reduced form = 44 810 M^−1 cm^−1, aʹ domain Ɛ280 reduced form = 14 400 M^−1 cm^−1). Rabbit anti‐ERp57 primary antibody will be shared upon reasonable request.
SPR experiments were performed with a SensiQ Pioneer apparatus. […] The amount of immobilized ERp57 was detected by mass concentration‐dependent changes in the refractive index on the sensorchip surface and corresponded to about 4000 resonance units (RU). […] Values of the plateau signal at steady‐state (Req) and full fittings with 1, 2, and 3 sites were calculated from kinetic evaluation of the sensorgrams using the Qdat 4.0 program.
Background: In SPR one partner is held on a chip, and binding of the other changes the refractive index at the surface.

Another data set relates to SH‐SY5Y cells. Description: MTT cell viability assay. It counts as cell-based, human. The following applies: Aβ25−35 aggregated with ERp57. The procedure: For the cell viability experiments, 96‐well plates were seeded with 10 000 cells/well. After 24 h, cells were treated with 30 μM Aβ25−35 aggregated for 72 h in the presence or in the absence of 0.12 μM of ERp57 or GST recombinant proteins (in a 1:250 ratio), in a final volume of 150 μl per well. Plates were incubated for 24 h in an incubator at 37°C, 5% of CO2, and 99% RH. Thereafter, 20 μl of (3‐[4,5‐Dimethylthiazol‐2‐yl]‐2,5‐Diphenyltetrazolium Bromide) (MTT) dye (stock solution 5 mg/ml in PBS) (catalog number #M2003) was added to the wells and incubated for additional 2 h at 37°C and 5% CO2. Water‐insoluble formazan crystals were dissolved in 100 μl of DMSO (catalog number #472301). For spectrophotometric measurements, Appliscan® plate reader (Thermo scientific) was used at the wavelength 570 nm, with reference set at 690 nm.
(In general: Tetrazolium dyes change colour on reduction, which living cells bring about.)

The subject of the next data set is AD 5XFAD mice model. The note with it: activation of ERp57, cerebral cortex and hippocampus, ref Tohda et al., [2012]; cited from earlier work. The source says:
ERp57 has been previously linked to key processes in neurodegeneration and particularly in AD pathogenesis.

In the next data set the test system is tau. Further details: method as in Xu et al., [2013]. The following applies: within the cell; ref Xu et al., [2013]; cited from earlier work.
In data set [1] the target is ERp57 (human recombinant PDIA3) (human) (UniProt P30101). Description: SPR; ERp57 immobilised by amine coupling on a COOH5 sensorchip (about 4000 RU), SensiQ Pioneer; non-aggregated Aβ25-35 injected for 240 s at 30 μl/min at 15.6 μM to 1.0 mM; 25°C; HBSP buffer (20 mM HEPES pH 7.4, 150 mM NaCl, 0.005% Tween-20); global kinetic fits with one or two binding sites (Qdat 4.0).

The text below walks through data of publication PMC9543391, “ERp57 chaperon protein protects neuronal cells from Aβ‐induced toxicity” (Journal of Neurochemistry, 2022).

Peptide text beside a SMILES is read from it.

For the molecule `CC[C@H](C)[C@H](NC(=O)[C@H](C)NC(=O)CNC(=O)[C@H](CCCCN)NC(=O)[C@H](CC(N)=O)NC(=O)[C@H](CO)NC(=O)CN)C(=O)N[C@H](C(=O)NCC(=O)N[C@@H](CC(C)C)C(=O)N[C@@H](CCSC)C(=O)O)[C@@H](C)CC` [Aβ25−35] (H-GSNKGAIIGLM-OH), the Kd at ERp57 is 33 ± 2 µM. Further, the “toxicity of Aβ25−35 bound by ERp57” value in the data set on SH‐SY5Y cells is on record as “no longer leads to toxicity”.
As for `C[C@@H]1CC[C@@]2(OC1)O[C@H]1C[C@H]3[C@@H]4CC=C5C[C@@H](O)CC[C@]5(C)[C@H]4CC[C@]3(C)[C@H]1[C@@H]2C` [diosgenin], in the data set with AD 5XFAD mice model, the “object recognition memory; amyloid plaques and neurofibrillary tangles” value is “significantly improves performance of object recognition memory and reduces amyloid plaques and neurofibrillary tangles”.
In the case of PDI: protein disulfide isomerase, the “effect on tau fibril formation” value in the data set with tau was “able to reduce the formation of tau fibrils”.
Turning to “Amyloid beta peptide fragment 25-35 (Aβ25-35)”, in data set [1], the KD1 (fit with two binding sites, high-affinity site) worked out at 34 µM and the KD2 (fit with two binding sites, low-affinity site) amounted to 3.3 mM.
